# Laboratory results taken from publication PMC6934184, “Selective DNA-PKcs inhibition extends the therapeutic index of localized radiotherapy and chemotherapy” (The Journal of Clinical Investigation, 2019).
# Target: T1, SPHK2 (Homo sapiens, UniProt Q9NRA0)
# T1 construct: purchased Thermo Fisher Scientific (Life Technologies) SelectScreen
# Test: SelectScreen Adapta
# Format: biochemical
# Details: ATP 10 µM
# Description: The in vitro kinase selectivity of NU5455 was determined using the SelectScreen Broad Assay Panel (Thermo Fisher Scientific) involving activity and binding assays (Supplemental Table 1). […] Class IA PI3Ks were measured using the p85α subunit.
# Kinase [ATP] % Assay Kinase [ATP] % Assay Kinase [ATP] % Assay Kinase [ATP] % Assay […]
# MAPK14 (p38 alpha) Km app 9.7 Z SPHK2 10 3.1 A ICK n/a 0.0 L SGKL (SGK3) Km app -4.6 Z […]
# SGK (SGK1) Km app 8.5 Z MAP4K2 (GCK) Km app 2.7 Z TLK2 n/a -0.3 L STK38 (NDR) n/a -5.9 L
# MERTK (cMER) Km app 8.3 Z CDK2/cyclin A Km app 2.7 Z TGFBR1 (ALK5) n/a -0.4 L MATK (HYL) Km app -6.3 Z
# FYN Km app 8.3 Z EPHA1 Km app 2.7 Z CLK3 Km app -0.5 Z ABL1 E255K Km app -6.6 Z
# TEC n/a 8.1 L CDK2/cyclin E1 n/a 2.7 L MAP3K14 (NIK) n/a -0.5 L STK17A (DRAK1) n/a -6.6 L
# KIT V654A n/a 8.1 L TESK2 n/a 2.7 L AKT3 (PKB gamma) Km app -0.5 Z JAK2 JH1 JH2 Km app -6.7 Z
# ROS1 Km app 8.0 Z SPHK1 Km app 2.7 A MAP3K9 (MLK1) Km app -0.5 Z PRKACB (PRKAC beta) n/a -6.8 L
# FGFR3 K650E Km app 7.9 Z AMPK A2/B1/G1 Km app 2.6 Z IKBKB (IKK beta) Km app -0.6 Z PDGFRA (PDGFR alpha) Km app -6.8 Z
# RAF1 (cRAF) Y340D Y341D 100 7.9 Z DYRK3 Km app 2.6 Z CAMK2A (CaMKII alpha) Km app -0.6 Z NEK9 Km app -7.2 Z
# PI4KA (PI4K alpha) 10 7.8 A CSNK1D (CK1 delta) Km app 2.6 Z PRKCB1 (PKC beta I) Km app -0.7 Z PDK1 Km app -7.3 Z
# HIPK2 Km app 7.8 Z ACVR2A n/a 2.5 L TTK n/a -0.7 L RPS6KB1 (p70S6K) Km app -7.8 Z […]
# T1 sequence (Q9NRA0 whole entry): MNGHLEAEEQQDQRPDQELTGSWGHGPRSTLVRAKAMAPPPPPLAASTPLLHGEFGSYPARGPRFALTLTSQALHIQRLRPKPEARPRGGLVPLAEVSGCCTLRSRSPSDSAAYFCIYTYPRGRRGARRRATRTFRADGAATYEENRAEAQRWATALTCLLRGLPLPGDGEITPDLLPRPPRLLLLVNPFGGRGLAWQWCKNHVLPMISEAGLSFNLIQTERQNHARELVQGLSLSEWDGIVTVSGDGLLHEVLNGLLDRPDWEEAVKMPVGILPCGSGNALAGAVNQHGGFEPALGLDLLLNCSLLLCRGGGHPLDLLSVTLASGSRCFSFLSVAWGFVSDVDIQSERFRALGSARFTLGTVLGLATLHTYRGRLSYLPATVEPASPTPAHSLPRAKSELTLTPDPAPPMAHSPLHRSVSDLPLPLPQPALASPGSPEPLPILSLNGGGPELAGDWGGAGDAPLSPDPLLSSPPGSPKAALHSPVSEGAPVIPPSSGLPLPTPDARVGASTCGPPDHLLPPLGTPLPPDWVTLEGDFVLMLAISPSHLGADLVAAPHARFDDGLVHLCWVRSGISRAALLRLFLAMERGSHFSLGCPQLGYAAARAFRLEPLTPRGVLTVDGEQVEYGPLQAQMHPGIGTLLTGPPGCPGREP
smiles,measurement,value
CN(C(=O)CN1CCOCC1)c1ccc2sc3c(-c4cccc5c(=O)cc(N6CC7CCC(C6)O7)oc45)cccc3c2c1 [NU5455],inhibition at 1 µM,3.1%
